pEC50: −log10 of the molar value.
Columns and labels:
Assay type in all cases: cell-based, human
[1] = tested on: 786-O renal cancer cells, which are CD70 positive; assay: In vitro activity of conjugates, 3H thymidine proliferation assay, 786-O; conditions: 72 h incubation
Description: (§1) This example generally describes the procedures used to assay the antiproliferative activity of compounds of this invention or their conjugates. Human tumor cell lines were obtained from the American Type Culture Collection (ATCC), P.O. Box 1549, Manassas, Va. 20108, USA, and cultured according to instruction from the ATCC. Cells were seeded at 1.0×10^3 or 1.0×10^4 cells/well in 96-well plates for 3 h for ATP assays or ^3H thymidine assays, respectively. 1:3 serial dilutions of free (unconjugated) compounds or their conjugates were added to the wells. Plates were allowed to incubate for 24 to 72 h. The ^3H thymidine plates were pulsed with 1.0 μCi of ^3H-thymidine per well for the last 24 hours of the total incubation period, harvested, and read on a Top Count Scintillation Counter (Packard Instruments, Meriden, Conn.). ATP levels in the ATP plates were measured using the […]-GLO® Luminescent Cell Viability kit following the manufacturer's manual and read on a GLOMAX® 20/20 luminometer (both from Promega, Madison, Wis., USA). The EC50 values—the concentration at which an agent inhibits or reduces cell proliferation by 50% —were determined using PRISM™ software, version 4.0 (GraphPad Software, La Jolla, Calif., USA).
The incubation period was 72 h. The EC50 values extracted from the curves of FIG. 13 are given in Table 4, along data from other experiments. […]

H226 = assay: ATP luminescence proliferation assay, H226; conditions: Homo sapiens, NCI-H226, 72 h incubation period, read-out: EC50 against the H226 cell line
Description: as §1, with “The EC50 values—the concentration at which an agent inhibits or reduces cell proliferation by 50% —were determined using PRISM™ software, version 4.0 (GraphPad Software, La Jolla, Calif., USA).” left out
Using the ^3H thymidine or the ATP luminescence assay, or both, the activities of compounds of this invention were assayed against the following cancer cell lines: HCT-15 (colorectal cancer, multi-drug resistant (MDR)); Hep3B (liver cancer); LNCaP (prostate cancer, androgen receptor positive (AR^+)); MDA-MB-231 (breast cancer, estrogen receptor, progesterone receptor, and Her2 negative (triple negative)); A2058 (melanoma); U-87 MG (glioblastoma); NCI-H460 (NSCLC); A549 (NSCLC); HPAC (pancreatic cancer, primary); PC3 (prostate cancer, AR); BT474 (breast cancer, Her2 highly positive (Her2hi)); SKOV3 (ovarian cancer, Her2hi); 786-O (renal cancer); UO-31 (renal cancer, MDR); NCI-H740 (SCLC); DMS53 (SCLC); SK-BR3 (breast cancer, Her2hi); ZR-75 (breast cancer, estrogen receptor positive); OVCAR3 (ovarian cancer); HL-60 (APL); OVCAR8/Adr (ovarian cancer, MDR); CEM-Cl (ALL); Nomo-1 (AML); RPMI-8226 (MM)); Raji (lymphoma); SW-480 (colorectal cancer, metastatic); SW-620 (colorectal cancer); and H226 (lung cancer). […]

OVCAR8/Adr = assay: ATP luminescence proliferation assay, OVCAR8/Adr; conditions: Homo sapiens, OVCAR-8, 48 h incubation period, read-out: EC50 against the OVACAR8/Adr cell line
Description: as §1
(§2) Using the ^3H thymidine or the ATP luminescence assay, or both, the activities of compounds of this invention were assayed against the following cancer cell lines: HCT-15 (colorectal cancer, multi-drug resistant (MDR)); Hep3B (liver cancer); LNCaP (prostate cancer, androgen receptor positive (AR^+)); MDA-MB-231 (breast cancer, estrogen receptor, progesterone receptor, and Her2 negative (triple negative)); A2058 (melanoma); U-87 MG (glioblastoma); NCI-H460 (NSCLC); A549 (NSCLC); HPAC (pancreatic cancer, primary); PC3 (prostate cancer, AR); BT474 (breast cancer, Her2 highly positive (Her2hi)); SKOV3 (ovarian cancer, Her2hi); 786-O (renal cancer); UO-31 (renal cancer, MDR); NCI-H740 (SCLC); DMS53 (SCLC); SK-BR3 (breast cancer, Her2hi); ZR-75 (breast cancer, estrogen receptor positive); OVCAR3 (ovarian cancer); HL-60 (APL); OVCAR8/Adr (ovarian cancer, MDR); CEM-Cl (ALL); Nomo-1 (AML); RPMI-8226 (MM)); Raji (lymphoma); SW-480 (colorectal cancer, metastatic); SW-620 (colorectal cancer); and H226 (lung cancer). (Not all compounds were assayed against all cell lines.)
(§3) Table 3 provides the data for the ATP luminescence proliferation assays, with an incubation period of 48, 72, or 96 h, as noted.

786-O = assay: ATP luminescence proliferation assay, 786-O; conditions: Homo sapiens, 786-0, 72 h, read-out: EC50 786-O (72 h), ATP luminescence, 786-O, 72 h incubation
Description: as §1, §2
(§4) FIGS. 12a and 12b show illustrative plots for ATP luminescence proliferation assays for a second set of compounds of this invention, against HL-60 and 786-O cells, respectively, with an incubation period of 72 h. FIGS. 12c and 12d show the plots for ^3H thymidine proliferation assays for the same set of compounds, again against HL-60 and 786-O cells, respectively, with a 72 h incubation period. In each instance, doxorubicin was used as a comparative compound.
as §3

OVCAR3 = assay: ATP luminescence proliferation assay, OVCAR3; conditions: Homo sapiens, OVCAR-3, 72 h, read-out: EC50 OVCAR3 (72 h), ATP luminescence, OVCAR3, 72 h incubation
Description: as §1, §2, §3

HL-60 = assay: ATP luminescence proliferation assay, HL-60; conditions: Homo sapiens, HL-60, 48 h, read-out: EC50 HL-60 (48 h), ATP luminescence, HL-60, 48 h incubation
Description: as §1, §2, §4, §3

Compound	pEC50 [1]	pEC50 (H226)	pEC50 (OVCAR8/Adr)	pEC50 (786-O)	pEC50 (OVCAR3)	pEC50 (HL-60)
diphtheria toxin [DTX]	6.98					
CCCN(C(=O)[C@@H](NC(=O)[C@H]1CCCCN1C)[C@@H](C)CC)[C@H](C[C@@H](OC(C)=O)c1nc(C(=O)N[C@@H](Cc2ccc(N)cc2)CC(C)C(=O)OCC)cs1)C(C)C (stereo partly drawn) [Compound 112]		8.94 to 9.17	7.92	9.17	10.31	10.05 to 10.30

Reference: US20130204033A1, “ANTIPROLIFERATIVE COMPOUNDS, CONJUGATES THEREOF, METHODS THEREFOR, AND USES THEREOF” (Medarex, Inc., priority 2009, published 2013)
